The target of this assay is T1, human mAChR M1 (Homo sapiens, UniProt P11229).
T1 sequence (P11229 1-460): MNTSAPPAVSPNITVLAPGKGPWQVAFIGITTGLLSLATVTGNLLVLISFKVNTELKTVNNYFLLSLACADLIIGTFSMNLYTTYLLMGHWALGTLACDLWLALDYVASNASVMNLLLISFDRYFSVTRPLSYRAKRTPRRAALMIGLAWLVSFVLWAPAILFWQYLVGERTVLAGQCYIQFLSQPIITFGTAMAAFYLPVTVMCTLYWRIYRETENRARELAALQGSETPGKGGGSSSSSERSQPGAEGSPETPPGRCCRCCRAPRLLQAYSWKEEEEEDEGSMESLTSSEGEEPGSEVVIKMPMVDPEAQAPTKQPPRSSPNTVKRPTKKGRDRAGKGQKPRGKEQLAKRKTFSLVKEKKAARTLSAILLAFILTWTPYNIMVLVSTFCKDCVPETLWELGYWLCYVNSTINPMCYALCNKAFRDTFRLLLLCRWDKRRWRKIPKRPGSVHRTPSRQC
The assay can be described thus: mAChR M1 cell-based functional assay: calcium mobilization, positive allosteric modulator mode (increase in EC20 acetylcholine response). The following applies: for Emax: read-out: Human M1 Emax (%). The procedure, abridged: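 Calcium-flux assay in CHO-K1 cells stably expressing human M1, loaded with Fluo-4 AM (50 min, 37 °C) and read at 1 Hz. Compound (11-point, 1:3 series) was added at 4 s, EC20 acetylcholine at 144 s and EC80 at 230 s. PAM activity is the concentration-dependent rise in the EC20 response, fitted with a four-parameter logistic.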
Background: Calcium assays in cells follow changes in intracellular calcium, usually with a dye or a luminescent sensor.

[1] abbreviates: Table 2, human M1, read-out: Human M1 EC50.
Where [2] appears, read: Table 1, mAChR M1 cell-based functional assay, PAM mode, species not given, read-out: EC50.

pEC50: −log10 of the molar value. Like-named read-outs stand apart in the source and are kept apart here.

As to `Cn1ccc(-c2ccc(Cc3cc(C(=O)NCC4CCOCC4)nc4ccsc34)cn2)n1` [Compound 358, 7-[[6-(1-methylpyrazol-3-yl)-3-pyridyl]methyl]-N-(tetrahydropyran-4-ylmethyl)thieno[3,2-b]pyridine-5-carboxamide], under setting [1], the negative-log EC50 (pEC50) (usually −log10 of the EC50, conventionally taken in molar units) is 6.70. Also, the Emax – broadly, the greatest response seen or fitted, relative to the assay's reference – (Table 2, human M1) came out at 84.3%.
As for `Cc1ccc(Cc2cc(C(=O)N[C@@H]3CC[C@H]3O)nc3ccsc23)cn1` [Compound 44], the negative logarithm of the EC50 (pEC50) under setting [2] is 5.42.
Turning to `O=C(NC[C@@H]1CCCO1)c1cc(Cc2ccc(-c3nccs3)cc2)c2sccc2n1` [Compound 389, N-[[(2S)-tetrahydrofuran-2-yl]methyl]-7-[(4-thiazol-2-ylphenyl)methyl]thieno[3,2-b]pyridine-5-carboxamide], the negative-log EC50 (pEC50) under setting [1] was 6.46. Further, the Emax (Table 2, human M1) turned out to be 64.9%.
`Cc1ccc(Cc2cc(C(=O)N[C@H]3CC[C@@H]3O)nc3c(C)csc23)cn1` [Compound 99]: the pEC50 under setting [1] was 5.14. In addition, the Emax (Table 2, human M1) amounted to 77.7%.
`Cc1ccc(Oc2cc(C(=O)NC3CCCCC3)nc3ccsc23)cn1` [Compound 19, N-cyclohexyl-7-[(6-methyl-3-pyridyl)oxy]thieno[3,2-b]pyridine-5-carboxamide]: under setting [2], the negative-log EC50 (pEC50) is under 5.00.
Regarding `Cc1ncc(Cc2cc(C(=O)N[C@H]3CC[C@@H]3O)nc3ccsc23)s1` [Compound 132, N-[(1S,2S)-2-hydroxycyclobutyl]-7-[(2-methylthiazol-5-yl)methyl]thieno[3,2-b]pyridine-5-carboxamide], under setting [1], the pEC50 is under 5.00. The maximal effect (Emax) (Table 2, human M1) came to 54.9%.
On to `Cc1ccc(Oc2cc(C(=O)N[C@H]3CCOC[C@@H]3O)nc3ccsc23)cn1` [Compound 22, N-[(3R,4S)-3-hydroxytetrahydropyran-4-yl]-7-[(6-methyl-3-pyridyl)oxy]thieno[3,2-b]pyridine-5-carboxamide], for which the pEC50 under setting [2] was 5.75.
Consider `Cn1cc(-c2ccc(Cc3cc(C(=O)N[C@@H]4CCC[C@H]4O)nc4ccsc34)cc2)nn1` [Compound 149, N-[(1R,2R)-2-hydroxycyclopentyl]-7-[[4-(1-methyltriazol-4-yl)phenyl]methyl]thieno[3,2-b]pyridine-5-carboxamide], for which, under setting [1], the pEC50 is 8.01. In addition, the Emax (Table 2, human M1) was 85%.
In the case of `CC1COCCC1NC(=O)c1cc(Cc2ccc(-n3cccn3)cc2)c2sccc2n1` (stereo not drawn) [Compound 444, N-(3-methyltetrahydropyran-4-yl)-7-[(4-pyrazol-1-ylphenyl)methyl]thieno[3,2-b]pyridine-5-carboxamide], the pEC50 under setting [1] was 6.58. The Emax (Table 2, human M1) stood at 71%.
For `O=C(NC1CCOCC1)c1cc(Cc2c(F)cc(-c3cscn3)cc2F)c2sccc2n1` [Compound 271, 7-[(2,6-difluoro-4-thiazol-4-yl-phenyl)methyl]-N-tetrahydropyran-4-yl-thieno[3,2-b]pyridine-5-carboxamide], the negative logarithm of the EC50 (pEC50) under setting [1] is 6.51. Moreover, the maximal effect (Emax) (Table 2, human M1) was determined as 45.5%.
Turning to `O=C(N[C@@H]1CCC[C@H]1O)c1cc(Cc2ccc(C(F)(F)F)nc2)c2sccc2n1` [Compound 88, N-[(1R,2R)-2-hydroxycyclopentyl]-7-[[6-(trifluoromethyl)-3-pyridyl]methyl]thieno[3,2-b]pyridine-5-carboxamide], the pEC50 under setting [1] is 6.30. Besides, the maximal effect (Emax) (Table 2, human M1) amounted to 90.5%.
`O=C(NC1CCOCC1)c1cc(Cc2ccc(-n3cccn3)cc2)c2sccc2n1` [Compound 228, 7-[(4-pyrazol-1-ylphenyl)methyl]-N-tetrahydropyran-4-yl-thieno[3,2-b]pyridine-5-carboxamide]: under setting [1], the negative-log EC50 (pEC50) is 6.80. The Emax (Table 2, human M1) came to 81.8%.
For the molecule `O=C(c1cc(Cc2ccc(-n3cccn3)cc2)c2sccc2n1)N1CC2CC1CO2` (stereo not drawn) [Compound 445, 2-oxa-5-azabicyclo[2.2.1]heptan-5-yl-[7-[(4-pyrazol-1-ylphenyl)methyl]thieno[3,2-b]pyridin-5-yl]methanone], the pEC50 under setting [1] was under 5.00. Besides, where the note is “Table 2, human M1”, the Emax turned out to be 50.7%.
For `Cc1csc2c(Cc3ccc(-n4cccn4)cc3)cc(C(=O)N[C@@H]3COCC[C@H]3O)nc12` [Compound 118], the negative logarithm of the EC50 (pEC50) under setting [1] is 6.87. Where the note is “Table 2, human M1”, the maximal response (Emax) amounted to 83.7%.
In the case of `CN1CC(NC(=O)c2cc(Cc3ccc(-n4cccn4)cc3)c3sccc3n2)CC1=O` (stereo not drawn) [Compound 438, N-(1-methyl-5-oxo-pyrrolidin-3-yl)-7-[(4-pyrazol-1-ylphenyl)methyl]thieno[3,2-b]pyridine-5-carboxamide], under setting [1], the pEC50 was 5.66. The maximum response (Emax) (Table 2, human M1) was determined as 63.1%.
On to `Cn1ccc2nc(C(=O)NC3CC(F)C3)cc(Cc3ccc(-c4nccs4)cc3)c21` (stereo not drawn) [Compound 488, N-(3-fluorocyclobutyl)-1-methyl-7-[(4-thiazol-2-ylphenyl)methyl]pyrrolo[3,2-b]pyridine-5-carboxamide], for which the pEC50 under setting [1] is 5.94. The Emax (Table 2, human M1) was determined as 37.5%.
Regarding `Cn1cc(-c2ccc(Cc3cc(C(=O)N[C@H]4CCOC[C@@H]4O)nc4ccsc34)cn2)cn1` [Compound 225, N-[(3R,4S)-3-hydroxytetrahydropyran-4-yl]-7-[[6-(1-methylpyrazol-4-yl)-3-pyridyl]methyl]thieno[3,2-b]pyridine-5-carboxamide], under setting [1], the pEC50 is 8.14. In addition, for the setting “Table 2, human M1”, the Emax is 63.6%.
On the same counts, the results for `COC1CC(NC(=O)c2cc(Cc3ccc(-n4cccn4)cc3)c3sccc3n2)C1` (stereo not drawn) [Compound 431, N-(3-methoxycyclobutyl)-7-[(4-pyrazol-1-ylphenyl)methyl]thieno[3,2-b]pyridine-5-carboxamide] are 5.83 and 69.3%.
In the case of `Cc1nn(C)cc1-c1ccc(Cc2cc(C(=O)N[C@H]3CCOC[C@@H]3O)nc3ccsc23)cc1` [Compound 248, 7-[[4-(1,3-dimethylpyrazol-4-yl)phenyl]methyl]-N-[(3R,4S)-3-hydroxytetrahydropyran-4-yl]thieno[3,2-b]pyridine-5-carboxamide], the pEC50 under setting [1] was 5.31. Further, the Emax (Table 2, human M1) was 71.3%.
Regarding `Cn1ccc(-c2ccc(Cc3cc(C(=O)N[C@H]4CCC[C@@H]4O)nc4ccsc34)cn2)n1` [Compound 352, N-[(1S,2S)-2-hydroxycyclopentyl]-7-[[6-(1-methylpyrazol-3-yl)-3-pyridyl]methyl]thieno[3,2-b]pyridine-5-carboxamide], the pEC50 under setting [1] is 7.49. Besides, under “Table 2, human M1”, the maximum response (Emax) was 90.7%.
Consider `Cc1ncc(Cc2cc(C(=O)N[C@@H]3COCC[C@H]3O)nc3ccsc23)s1` [Compound 138, N-[(3R,4R)-4-hydroxytetrahydropyran-3-yl]-7-[(2-methylthiazol-5-yl)methyl]thieno[3,2-b]pyridine-5-carboxamide], for which the negative-log EC50 (pEC50) under setting [1] is under 5.00. Also, the maximal effect (Emax) (Table 2, human M1) worked out at 74.3%.
`Cc1ccc(Oc2cc(C(=O)N[C@H]3CCC[C@@H]3O)nc3ccsc23)cn1` [Compound 18, N-[(1S,2S)-2-hydroxycyclopentyl]-7-[(6-methyl-3-pyridyl)oxy]thieno[3,2-b]pyridine-5-carboxamide]: the negative logarithm of the EC50 (pEC50) under setting [2] was under 5.00.
Take `Cn1ccc2nc(C(=O)N[C@H]3CC[C@@H]3O)cc(Cc3ccc(-c4nccs4)cc3)c21` [Compound 482, N-[(1S,2S)-2-hydroxycyclobutyl]-1-methyl-7-[(4-thiazol-2-ylphenyl)methyl]pyrrolo[3,2-b]pyridine-5-carboxamide]: the pEC50 under setting [1] is 6.77. Also, the maximal effect (Emax) (Table 2, human M1) turned out to be 61.2%.
Turning to `Cn1ccc2nc(C(=O)N[C@H]3CCC[C@@H]3O)cc(Cc3ccc(-c4cscn4)cc3)c21` [Compound 458, N-[(1S,2S)-2-hydroxycyclopentyl]-1-methyl-7-[(4-thiazol-4-ylphenyl)methyl]pyrrolo[3,2-b]pyridine-5-carboxamide], the pEC50 under setting [1] was 6.89. Besides, the Emax (Table 2, human M1) turned out to be 73.4%.
Take `Cc1ccc(Cc2cc(C(=O)NC3CCN(C)CC3)nc3c(C)csc23)cn1` [Compound 112, 3-methyl-N-(1-methyl-4-piperidyl)-7-[(6-methyl-3-pyridyl)methyl]thieno[3,2-b]pyridine-5-carboxamide]: the pEC50 under setting [1] was 5.24. For the same molecule, the Emax (Table 2, human M1) was 36.7%.
Turning to `O=C(N[C@H]1COCC[C@@H]1O)c1cc(Cc2ccc(-c3nccs3)cc2)c2sccc2n1` [Compound 371], the negative-log EC50 (pEC50) under setting [1] was 7.66. The maximal effect (Emax) (Table 2, human M1) came out at 81.5%.
Take `Cn1ncc2nc(C(=O)NC3CC4(COC4)C3)cc(Cc3ccc(-c4cscn4)cc3)c21` [Compound 489, 1-Methyl-N-(2-oxaspiro[3.3]heptan-6-yl)-7-[(4-thiazol-4-ylphenyl)methyl]pyrazolo[4,3-b]pyridine-5-carboxamide]: under setting [1], the negative-log EC50 (pEC50) is 5.56. Moreover, the Emax (Table 2, human M1) was 52%.
As to `O=C(NC1CCCNC1=O)c1cc(Cc2ccc(C(F)(F)F)nc2)c2sccc2n1` (stereo not drawn) [Compound 97, N-(2-oxo-3-piperidyl)-7-[[6-(trifluoromethyl)-3-pyridyl]methyl]thieno[3,2-b]pyridine-5-carboxamide], the pEC50 under setting [1] is under 5.00. Also, the Emax (Table 2, human M1) was found to be 75.2%.
As for `Cc1nc(-c2ccc(Cc3cc(C(=O)NC4CC(F)C4)nc4ccsc34)cc2)cs1` (stereo not drawn) [Compound 181, N-(3-fluorocyclobutyl)-7-[[4-(2-methylthiazol-4-yl)phenyl]methyl]thieno[3,2-b]pyridine-5-carboxamide], under setting [1], the pEC50 was 5.42. The Emax (Table 2, human M1) stood at 64%.
